Assay results from ChEMBL document CHEMBL2396526, “Chromenylchalcones showing cytotoxicity on human colon cancer cell lines and in silico docking with aurora kinases” (Bioorg Med Chem, 2013).
Calls of active or inactive are those of the source. No cut-off for these calls is given here.

Key:
HCT-116 [1] = assay: Induction of apoptosis in human HCT116 cells assessed as DNA content at sub-G1 phase at 20 uM after 24 hrs by annexin V-FITC/propidium iodide staining-based flow cytometric analysis (reference value: 92%); format: functional
HCT-116 [2] = assay: Induction of apoptosis in human HCT116 cells assessed as dead cells at 20 uM after 24 hrs by annexin V-FITC/propidium iodide staining-based flow cytometric analysis (reference value: 2%); format: functional
[3] = biological target: [Pyruvate dehydrogenase (acetyl-transferring)] kinase isozyme 1, mitochondrial (Homo sapiens) (UniProt Q15118); assay: Inhibition of human PDK1
Homo sapiens = organism: Homo sapiens; assay: Inhibition of human Rsk
[4] = biological target: Tyrosine-protein kinase Lck (Homo sapiens) (UniProt P06239); assay: Inhibition of human LCK
Chain of Tyrosine-protein kinase Lck (Homo sapiens) (P06239 2-509 limits assumed): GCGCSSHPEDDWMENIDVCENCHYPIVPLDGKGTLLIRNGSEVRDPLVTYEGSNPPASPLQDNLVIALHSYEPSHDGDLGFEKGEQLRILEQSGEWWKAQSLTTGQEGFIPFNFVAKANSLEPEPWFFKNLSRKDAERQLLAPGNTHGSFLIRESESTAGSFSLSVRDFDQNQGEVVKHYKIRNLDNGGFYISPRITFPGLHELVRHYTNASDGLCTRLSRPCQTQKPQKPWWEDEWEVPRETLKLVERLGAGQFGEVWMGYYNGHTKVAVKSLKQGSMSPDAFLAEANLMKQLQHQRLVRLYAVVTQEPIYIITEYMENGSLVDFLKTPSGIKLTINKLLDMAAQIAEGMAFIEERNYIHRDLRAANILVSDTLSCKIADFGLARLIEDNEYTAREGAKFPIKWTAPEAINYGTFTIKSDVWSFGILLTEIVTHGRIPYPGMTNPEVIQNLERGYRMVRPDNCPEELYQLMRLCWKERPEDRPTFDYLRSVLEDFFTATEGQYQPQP

[5] = biological target: T1, Ephrin type-B receptor 3 (Homo sapiens) (UniProt P54753); assay: Inhibition of human EphB
T1 sequence (whole entry): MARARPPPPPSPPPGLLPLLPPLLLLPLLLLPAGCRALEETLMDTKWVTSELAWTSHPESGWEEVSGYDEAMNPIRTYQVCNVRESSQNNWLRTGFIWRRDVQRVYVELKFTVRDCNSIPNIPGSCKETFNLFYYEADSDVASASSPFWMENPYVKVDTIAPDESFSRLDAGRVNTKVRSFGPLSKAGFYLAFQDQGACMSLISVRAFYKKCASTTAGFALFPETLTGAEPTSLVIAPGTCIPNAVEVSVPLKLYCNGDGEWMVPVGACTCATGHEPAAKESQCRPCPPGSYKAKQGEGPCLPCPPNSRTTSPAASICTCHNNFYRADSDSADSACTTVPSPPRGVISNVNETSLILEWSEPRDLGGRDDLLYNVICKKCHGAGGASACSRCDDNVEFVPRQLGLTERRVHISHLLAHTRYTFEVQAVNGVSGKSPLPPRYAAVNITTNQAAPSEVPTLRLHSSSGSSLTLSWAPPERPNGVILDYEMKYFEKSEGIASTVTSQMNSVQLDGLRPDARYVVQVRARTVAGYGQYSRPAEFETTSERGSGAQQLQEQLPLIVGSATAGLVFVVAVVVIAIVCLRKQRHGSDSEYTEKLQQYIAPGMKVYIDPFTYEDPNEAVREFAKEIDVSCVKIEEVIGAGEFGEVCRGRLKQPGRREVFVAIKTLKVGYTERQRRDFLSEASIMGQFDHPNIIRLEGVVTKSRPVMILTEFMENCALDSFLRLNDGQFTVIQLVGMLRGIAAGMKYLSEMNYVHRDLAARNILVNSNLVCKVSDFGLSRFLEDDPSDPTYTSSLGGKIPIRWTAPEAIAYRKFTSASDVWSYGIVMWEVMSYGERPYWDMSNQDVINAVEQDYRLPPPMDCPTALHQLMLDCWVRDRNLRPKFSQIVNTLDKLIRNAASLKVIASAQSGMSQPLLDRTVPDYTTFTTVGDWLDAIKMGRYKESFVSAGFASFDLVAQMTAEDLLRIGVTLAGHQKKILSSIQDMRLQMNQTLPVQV

[6] = biological target: Aurora kinase B (Homo sapiens) (UniProt Q96GD4); assay: Inhibition of human aurora-B; conditions: concentration not given here
Chain of Aurora kinase B (Homo sapiens) (Q96GD4 whole entry): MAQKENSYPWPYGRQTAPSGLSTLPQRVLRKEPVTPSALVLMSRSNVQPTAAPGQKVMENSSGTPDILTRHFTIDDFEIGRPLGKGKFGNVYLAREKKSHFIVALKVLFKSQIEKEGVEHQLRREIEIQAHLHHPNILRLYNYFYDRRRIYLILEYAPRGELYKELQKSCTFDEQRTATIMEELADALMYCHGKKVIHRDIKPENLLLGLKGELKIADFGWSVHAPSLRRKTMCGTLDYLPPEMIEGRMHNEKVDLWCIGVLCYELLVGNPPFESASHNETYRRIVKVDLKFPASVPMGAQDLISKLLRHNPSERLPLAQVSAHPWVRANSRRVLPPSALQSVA

[7] = biological target: T2, Aurora kinase A (Homo sapiens) (UniProt O14965); assay: Inhibition of human aurora-A; conditions: concentration not given here
T2 sequence (whole entry): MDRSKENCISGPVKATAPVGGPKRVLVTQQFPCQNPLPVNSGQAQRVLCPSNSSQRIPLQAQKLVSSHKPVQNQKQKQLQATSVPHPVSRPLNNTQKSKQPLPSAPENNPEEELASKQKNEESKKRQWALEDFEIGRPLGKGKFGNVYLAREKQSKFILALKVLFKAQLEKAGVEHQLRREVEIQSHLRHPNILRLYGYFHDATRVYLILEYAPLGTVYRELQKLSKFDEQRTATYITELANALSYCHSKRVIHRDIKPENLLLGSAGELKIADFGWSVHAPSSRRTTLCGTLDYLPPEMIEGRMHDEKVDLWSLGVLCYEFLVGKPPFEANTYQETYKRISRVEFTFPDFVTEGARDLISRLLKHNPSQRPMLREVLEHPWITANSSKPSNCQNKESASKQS

HCT-116 [8] = assay: Induction of apoptosis in human HCT116 cells assessed as appearance of cleaved caspase-7 at fragmented chromosomes at 20 uM after 24 hrs by Hoechst 33258 staining-based fluorescence microscopic analysis; format: functional, cell-based
HCT-116 [9] = assay: Induction of apoptosis in human HCT116 cells assessed as caspase-7 cleavage at 20 uM by Western blot analysis; format: functional, cell-based; conditions: TDE = time-dependent effect
HCT-116 [10] = assay: Cell cycle arrest in human HCT116 cells assessed as accumulation at sub-G1 phase at 20 uM by propidium iodide staining-based flow cytometric analysis; format: functional; conditions: TDE = time-dependent effect
HCT-116 [11] = assay: Cell cycle arrest in human HCT116 cells assessed as accumulation at sub-G1 phase at 20 uM after 48 hrs by propidium iodide staining-based flow cytometric analysis (reference value: 2.9%); format: functional
HCT-116 [12] = assay: Cell cycle arrest in human HCT116 cells assessed as accumulation at G2/M phase at 20 uM after 24 hrs by propidium iodide staining-based flow cytometric analysis (reference value: 2.9%); format: functional
HCT-116 [13] = assay: Cell cycle arrest in human HCT116 cells assessed as accumulation at S phase at 20 uM after 24 hrs by propidium iodide staining-based flow cytometric analysis (reference value: 2.9%); format: functional
HCT-116 [14] = assay: Cell cycle arrest in human HCT116 cells assessed as accumulation at sub-G1 phase at 20 uM after 24 hrs by propidium iodide staining-based flow cytometric analysis (reference value: 2.9%); format: functional
HCT-116 [15] = assay: Cell cycle arrest in human HCT116 cells assessed as accumulation at G1 phase at 20 uM after 12 hrs by propidium iodide staining-based flow cytometric analysis (reference value: 48.2%); format: functional
HCT-116 [16] = assay: Cell cycle arrest in human HCT116 cells assessed as accumulation at sub-G1 phase at 20 uM after 12 hrs by propidium iodide staining-based flow cytometric analysis (reference value: 2.9%); format: functional
HCT-116 [17] = assay: Cytotoxicity against human HCT116 cells assessed as cell survival at 5 to 40 uM after 7 days by crystal violet staining assay; format: functional, cell-based; conditions: HCT-116, 168 h
[18] = biological target: Epidermal growth factor receptor (Homo sapiens) (UniProt P00533); assay: Inhibition of human EGFR
Chain of Epidermal growth factor receptor (Homo sapiens) (P00533 whole entry): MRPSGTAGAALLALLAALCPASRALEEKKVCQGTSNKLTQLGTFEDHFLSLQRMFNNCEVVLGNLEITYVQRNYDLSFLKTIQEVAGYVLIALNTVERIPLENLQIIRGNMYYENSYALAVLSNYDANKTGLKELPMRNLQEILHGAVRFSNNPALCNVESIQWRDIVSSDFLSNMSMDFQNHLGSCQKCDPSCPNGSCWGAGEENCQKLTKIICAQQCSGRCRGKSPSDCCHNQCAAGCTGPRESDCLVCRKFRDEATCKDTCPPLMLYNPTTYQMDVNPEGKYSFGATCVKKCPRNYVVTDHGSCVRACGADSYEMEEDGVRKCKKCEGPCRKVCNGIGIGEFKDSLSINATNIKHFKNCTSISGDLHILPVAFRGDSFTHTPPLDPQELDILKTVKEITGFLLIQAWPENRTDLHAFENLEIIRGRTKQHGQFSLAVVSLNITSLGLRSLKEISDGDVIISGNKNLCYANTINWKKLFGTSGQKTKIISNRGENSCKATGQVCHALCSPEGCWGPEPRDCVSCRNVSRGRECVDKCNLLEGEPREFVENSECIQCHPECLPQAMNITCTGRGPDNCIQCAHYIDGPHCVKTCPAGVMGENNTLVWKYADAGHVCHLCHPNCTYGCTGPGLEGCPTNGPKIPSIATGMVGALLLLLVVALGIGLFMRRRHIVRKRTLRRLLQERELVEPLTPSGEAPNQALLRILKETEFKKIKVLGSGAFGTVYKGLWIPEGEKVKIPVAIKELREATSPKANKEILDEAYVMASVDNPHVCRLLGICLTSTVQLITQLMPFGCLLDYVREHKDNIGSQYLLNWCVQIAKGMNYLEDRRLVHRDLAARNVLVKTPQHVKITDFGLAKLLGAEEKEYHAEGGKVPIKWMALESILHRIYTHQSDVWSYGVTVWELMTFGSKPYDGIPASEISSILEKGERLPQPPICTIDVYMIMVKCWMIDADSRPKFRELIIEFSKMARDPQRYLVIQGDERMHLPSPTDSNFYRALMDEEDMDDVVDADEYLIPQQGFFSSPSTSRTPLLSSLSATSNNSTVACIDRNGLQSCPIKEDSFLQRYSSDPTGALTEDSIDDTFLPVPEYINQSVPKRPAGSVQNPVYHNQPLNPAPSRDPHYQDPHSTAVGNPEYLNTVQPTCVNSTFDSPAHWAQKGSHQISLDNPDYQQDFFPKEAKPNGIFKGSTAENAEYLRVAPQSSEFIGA

## COc1ccc2c(c1)C=C(C(=O)/C=C/c1c(OC)cc(OC)cc1OC)CO2
HCT-116 [1]
  Activity: 1%
HCT-116 [2]
  Activity: 0%
[3]
  inhibition: inactive
Homo sapiens
  inhibition: inactive
[4]
  inhibition: inactive
[5]
  inhibition: inactive
[6]
  inhibition: 65%
[7]
  inhibition: 69%
HCT-116 [8]
  Activity: Active
HCT-116 [9]
  Activity: tde
HCT-116 [10]
  Activity: tde
HCT-116 [11]
  Activity: 45.3%
HCT-116 [12]
  Activity: 21.5%
HCT-116 [13]
  Activity: 13.6%
HCT-116 [14]
  Activity: 35.3%
HCT-116 [15]
  Activity: 18.9%
HCT-116 [16]
  Activity: 15.1%
HCT-116 [17]
  IC50: 93 nM
[18]
  inhibition: inactive
